According to patent US12202818B2, “Compounds and methods for CD73 modulation and indications therefor” (Opna Bio SA, priority 2020, dated 2025):

Tests used:
[1] = target: T1, Human CD73 (amino acid residues 27-549) (Homo sapiens, UniProt P21589); experiment: CD73 enzymatic assay (luciferase-based indirect assay, CellTiter-Glo); format: biochemical; settings: 0.4 nM CD73, 150 μM AMP, 1 hour at room temperature
T1 construct: Human CD73 (amino acid residues 27-549); His tag (N); made in house; host or cells: E. coli
T1 sequence (P21589 27-549): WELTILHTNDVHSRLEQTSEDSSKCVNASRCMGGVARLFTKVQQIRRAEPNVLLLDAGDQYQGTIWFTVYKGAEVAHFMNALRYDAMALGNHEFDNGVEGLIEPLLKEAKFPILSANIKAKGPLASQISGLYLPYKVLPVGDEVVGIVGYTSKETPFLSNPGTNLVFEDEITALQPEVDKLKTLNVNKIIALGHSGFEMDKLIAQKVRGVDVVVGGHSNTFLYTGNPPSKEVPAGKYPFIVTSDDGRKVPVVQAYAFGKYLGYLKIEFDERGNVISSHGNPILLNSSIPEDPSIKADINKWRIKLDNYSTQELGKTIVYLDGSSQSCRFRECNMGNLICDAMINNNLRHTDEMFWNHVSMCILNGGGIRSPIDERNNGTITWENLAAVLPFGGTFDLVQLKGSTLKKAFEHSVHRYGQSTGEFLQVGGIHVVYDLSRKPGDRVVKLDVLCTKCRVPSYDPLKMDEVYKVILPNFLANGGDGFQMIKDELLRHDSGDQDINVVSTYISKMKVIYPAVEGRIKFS
Procedure: CD73 enzymatic activity was measured in a luciferase-based indirect assay using CellTiter-Glo® system from Promega. The luciferase reaction in the presence of ATP is inhibited by AMP, a primary substrate of CD73. Addition of CD73 enzyme to the reaction converts AMP to adenosine, and release the inhibition, producing a luminescent signal. Inhibition of CD73 leads to the decrease of this luminescent signal.
Human CD73 (amino acid residues 27-549) with N-Terminal His tag was purified in E. coli. All the assay components were prepared in 50 mM HEPEs buffer (pH 7.4) with 0.01% Tween-20. The CD73 enzymatic assay was performed using 0.4 nM CD73 and 150 μM AMP. 9.5 μL of CD73 protein and 9.5 μL of AMP were added to the wells of a 384 well plate containing lpL of various concentrations of test compound or DMSO vehicle and incubated for 1 hour at room temperature. 16 wells containing CD73, AMP and 5% DMSO served as high control. 16 wells containing AMP and 5% DMSO served as low control. Enzymatic reaction was stopped and AMP level was measured indirectly by adding 5 μL of CellTiter-Glo® 2.0 reagent and 5 μL of ATP with a final concentration of 1 μM. Following incubation of the plate at room temperature for 30 minutes, luminescent signal was read on a Tecan plate reader. The percentage inhibition at individual concentrations relative to high and low controls was calculated. The data were analyzed by using nonlinear regression to generate IC50 values.

human CD73 = target: T2, human CD73 (Homo sapiens, UniProt P21589); experiment: Inhibitor activity against CD73 in cell based assay (CD73 expressing CHO-K1 cells); settings: CHO-K1 cells expressing human CD73, 150 μM AMP, 4 hours of incubation; read-out: CHO-K1 CELL_VARIANT: CD73 IC50
T2 construct: expressed in transfected cells
T2 sequence (P21589 27-549): T1 sequence (P21589 27-549)
Procedure: Determine Inhibitor Activity Against CD73 in Cell Based Assay
CD73 expressing CHO-K1 cell clones were generated upon stable transfection of a plasmid expressing human CD73 under the control of CMV promoter. Cells were selected in Ham's F-12K (Kaighn's) media supplemented with 10% fetal bovine serum and 1 mg/ml G418 at 37° C. in a humidified incubator supplied with 5% CO2. The assays were performed as follows. Cells were seeded in a 96 well plate in 50 μL of culture media at a density of 1×10^4 per well. Compound at a maximal concentration of 5 mM was serially diluted 1:3 in DMSO for a total of 8 point titration. A 2 μL aliquot of each dilution point was added to […] culture media and 25 µL was added to each well, providing 10 μM compound at the maximum concentration point. AMP was diluted in culture media and 25 μL was added to each well with a final concentration of 150 μM. 4 wells containing 0.2% DMSO treated cells and AMP served as high controls and 4 wells containing media only with 0.2% DMSO and AMP served as low controls. After 4 hours of incubation, 20 μL of the supernatant was transferred to a 384 well plate. AMP level in supernatant was measured indirectly by adding 5 μL of CellTiter-Glo® 2.0 reagent and 5 μL of ATP with a final concentration of 1 μM. Following incubation of plate at room temperature for 30 minutes, luminescent signal was read on a Tecan plate reader. The percentage inhibition at individual concentrations relative to high and low controls was calculated. The data were analyzed by using nonlinear regression to generate ICso values.

Row | Compound | IC50 [1] [µM] | IC50 (human CD73) [µM]
1 | O=c1[nH]ncc(N2CC[C@@H](Oc3cc(-c4cnn(C5CCNCC5)c4)ccn3)C2)c1Cl [P-0002, (R)-4-chloro-5-(3-((4-(1-(piperidin-4-yl)-1H-pyrazol-4-yl)pyridin-2-yl)oxy)pyrrolidin-1-yl)pyridazin-3(2H)-one] | 0.001 to 10 | 0.001 to 10
2 | CC(C)N1CCN(c2ccnc(O[C@@H]3CCN(c4cn[nH]c(=O)c4Cl)C3)c2)CC1 [P-0003, (R)-4-chloro-5-(3-((4-(4-isopropylpiperazin-1-yl)pyridin-2-yl)oxy)pyrrolidin-1-yl)pyridazin-3(2H)-one] | 0.001 to 10 | 0.001 to 10
3 | CN1C2CCC1CN(c1ccnc(O[C@@H]3CCN(c4cn[nH]c(=O)c4Cl)C3)c1)C2 [P-0004, 4-chloro-5-((3R)-3-((4-(8-methyl-3,8-diazabicyclo[3.2.1]octan-3-yl)pyridin-2-yl)oxy)pyrrolidin-1-yl)pyridazin-3(2H)-one] | 0.001 to 10 | 0.001 to 10
4 | CC1(CN2CCC(c3ccnc(O[C@@H]4CCN(c5cn[nH]c(=O)c5Cl)C4)c3)CC2)COC1 [P-0005, (R)-4-chloro-5-(3-((4-(1-((3-methyloxetan-3-yl)methyl)piperidin-4-yl)pyridin-2-yl)oxy)pyrrolidin-1-yl)pyridazin-3(2H)-one] | 0.001 to 10 | 0.001 to 10
5 | Cc1nn(C(CO)CO)c(C)c1-c1cc(O[C@H]2CN(c3cnn(CCO)c(=O)c3Cl)C[C@@H]2F)ncc1F [P-0006, 4-chloro-5-((3S,4S)-3-((4-(1-(1,3-dihydroxypropan-2-yl)-3,5-dimethyl-1H-pyrazol-4-yl)-5-fluoropyridin-2-yl)oxy)-4-fluoropyrrolidin-1-yl)-2-(2-hydroxyethyl)pyridazin-3(2H)-one] | 0.001 to 10 | 0.001 to 10
6 | Cc1nn(C2COC2)c(C)c1-c1cc(O[C@H]2CN(c3cnn(CCO)c(=O)c3Cl)C[C@@H]2F)ncc1F [P-0007, 4-chloro-5-((3S,4S)-3-((4-(3,5-dimethyl-1-(oxetan-3-yl)-1H-pyrazol-4-yl)-5-fluoropyridin-2-yl)oxy)-4-fluoropyrrolidin-1-yl)-2-(2-hydroxyethyl)pyridazin-3(2H)-one] | 0.001 to 10 | 0.001 to 10
7 | CN1CCC(c2ccnc(O[C@@H]3CCN(c4cn[nH]c(=O)c4Cl)C3)c2)CC1 [P-0008, (R)-4-chloro-5-(3-((4-(1-methylpiperidin-4-yl)pyridin-2-yl)oxy)pyrrolidin-1-yl)pyridazin-3(2H)-one] | 0.001 to 10 | 0.001 to 10
8 | CC1CNCCC1c1ccnc(O[C@@H]2CCN(c3cn[nH]c(=O)c3Cl)C2)c1 (stereo partly drawn) [P-0009, 4-chloro-5-((3R)-3-((4-(3-methylpiperidin-4-yl)pyridin-2-yl)oxy)pyrrolidin-1-yl)pyridazin-3(2H)-one] | 0.001 to 10 | 0.001 to 10
9 | CC(C)(O)CN1CCC(c2ccnc(O[C@@H]3CCN(c4cn[nH]c(=O)c4Cl)C3)c2)CC1 [P-0010, (R)-4-chloro-5-(3-((4-(1-(2-hydroxy-2-methylpropyl)piperidin-4-yl)pyridin-2-yl)oxy)pyrrolidin-1-yl)pyridazin-3(2H)-one] | 0.001 to 10 | 0.001 to 10
10 | O=c1[nH]ncc(N2CC[C@@H](Oc3cc(C4CCN(CC(O)C(F)(F)F)CC4)ccn3)C2)c1Cl (stereo partly drawn) [P-0011, 4-chloro-5-((3R)-3-((4-(1-(3,3,3-trifluoro-2-hydroxypropyl)piperidin-4-yl)pyridin-2-yl)oxy)pyrrolidin-1-yl)pyridazin-3(2H)-one] | 0.001 to 10 | 0.001 to 10
11 | O=c1[nH]ncc(N2CC[C@@H](Oc3cc(C4CC5CCC(C4)N5)ccn3)C2)c1Cl (stereo partly drawn) [P-0012, 5-((3R)-3-((4-(8-azabicyclo[3.2.1]octan-3-yl)pyridin-2-yl)oxy)pyrrolidin-1-yl)-4-chloropyridazin-3(2H)-one] | 0.001 to 10 | 0.001 to 10
12 | O=c1[nH]ncc(N2CC[C@@H](Oc3cc(N4CC5CCC(C4)N5)ccn3)C2)c1Cl [P-0013, 5-((3R)-3-((4-(3,8-diazabicyclo[3.2.1]octan-3-yl)pyridin-2-yl)oxy)pyrrolidin-1-yl)-4-chloropyridazin-3(2H)-one] | 0.001 to 10 | 0.001 to 10
13 | Cc1nn(CC(C)(C)O)c(C)c1-c1cc(O[C@@H]2CCN(c3cnn(CCO)c(=O)c3Cl)C2)ncn1 [P-0014, (R)-4-chloro-5-(3-((6-(1-(2-hydroxy-2-methylpropyl)-3,5-dimethyl-1H-pyrazol-4-yl)pyrimidin-4-yl)oxy)pyrrolidin-1-yl)-2-(2-hydroxyethyl)pyridazin-3(2H)-one] | 0.001 to 10 | 0.001 to 10
14 | Cc1nn(CC(C)(C)O)c(C)c1-c1ccnc(O[C@H]2CN(c3cnn(CCO)c(=O)c3Cl)C[C@@H]2F)c1 [P-0015, 4-chloro-5-((3S,4S)-3-fluoro-4-((4-(1-(2-hydroxy-2-methylpropyl)-3,5-dimethyl-1H-pyrazol-4-yl)pyridin-2-yl)oxy)pyrrolidin-1-yl)-2-(2-hydroxyethyl)pyridazin-3(2H)-one] | 0.001 to 10 | 0.001 to 10
15 | O=C(CO)N1CCC(c2ccnc(O[C@@H]3CCN(c4cn[nH]c(=O)c4Cl)C3)c2)CC1 [P-0016, (R)-4-chloro-5-(3-((4-(1-(2-hydroxyacetyl)piperidin-4-yl)pyridin-2-yl)oxy)pyrrolidin-1-yl)pyridazin-3(2H)-one] | 0.001 to 10 | 0.001 to 10
16 | Cc1nn(CC(C)(C)O)c(C)c1-c1ccnc(O[C@@H]2CCN(c3cnn(CCO)c(=O)c3Cl)C2)c1 [P-0017, (R)-4-chloro-5-(3-((4-(1-(2-hydroxy-2-methylpropyl)-3,5-dimethyl-1H-pyrazol-4-yl)pyridin-2-yl)oxy)pyrrolidin-1-yl)-2-(2-hydroxyethyl)pyridazin-3(2H)-one] | 0.001 to 10 | 0.001 to 10
17 | O=c1[nH]ncc(N2CC[C@@H](Oc3cc(C4CCNC4)ccn3)C2)c1Cl (stereo partly drawn) [P-0018, 4-chloro-5-((3R)-3-((4-(pyrrolidin-3-yl)pyridin-2-yl)oxy)pyrrolidin-1-yl)pyridazin-3(2H)-one] | 0.001 to 10 | 0.001 to 10
18 | Cc1nn(C2COC2)c(C)c1-c1cc(O[C@@H]2CCN(c3cnn(CCO)c(=O)c3Cl)C2)ncc1F [P-0020, (R)-4-chloro-5-(3-((4-(3,5-dimethyl-1-(oxetan-3-yl)-1H-pyrazol-4-yl)-5-fluoropyridin-2-yl)oxy)pyrrolidin-1-yl)-2-(2-hydroxyethyl)pyridazin-3(2H)-one] | 0.001 to 10 | 0.001 to 10
19 | Cc1nn(CC(C)(C)O)c(C)c1-c1ccnc(O[C@H]2CN(c3cn[nH]c(=O)c3Cl)C[C@@H]2F)c1 [P-0021, 4-chloro-5-((3S,4S)-3-fluoro-4-((4-(1-(2-hydroxy-2-methylpropyl)-3,5-dimethyl-1H-pyrazol-4-yl)pyridin-2-yl)oxy)pyrrolidin-1-yl)pyridazin-3(2H)-one] | 0.001 to 10 | 0.001 to 10
20 | Cc1nn(C2CC2)c(C)c1-c1ccnc(O[C@@H]2CCN(c3cn[nH]c(=O)c3Cl)C2)c1 [P-0022, (R)-4-chloro-5-(3-((4-(1-cyclopropyl-3,5-dimethyl-1H-pyrazol-4-yl)pyridin-2-yl)oxy)pyrrolidin-1-yl)pyridazin-3(2H)-one] | 0.001 to 10 | 0.001 to 10
